Earlier results on two compounds are cited in US7041851B2, “Fluorinated phenyl thiophenyl derivatives and their use for imaging serotonin transporters” (The Trustees of the University of Pennsylvania, priority 2002, dated 2006).

This series concerns the target T1, SERT (Rattus norvegicus, UniProt P31652).
T1 construct: from tissue; host or cells: rat brain in vivo (hypothalamus, striatum, hippocampus, cerebellum)
Particulars: cited from earlier work.

T1 sequence (P31652 whole entry): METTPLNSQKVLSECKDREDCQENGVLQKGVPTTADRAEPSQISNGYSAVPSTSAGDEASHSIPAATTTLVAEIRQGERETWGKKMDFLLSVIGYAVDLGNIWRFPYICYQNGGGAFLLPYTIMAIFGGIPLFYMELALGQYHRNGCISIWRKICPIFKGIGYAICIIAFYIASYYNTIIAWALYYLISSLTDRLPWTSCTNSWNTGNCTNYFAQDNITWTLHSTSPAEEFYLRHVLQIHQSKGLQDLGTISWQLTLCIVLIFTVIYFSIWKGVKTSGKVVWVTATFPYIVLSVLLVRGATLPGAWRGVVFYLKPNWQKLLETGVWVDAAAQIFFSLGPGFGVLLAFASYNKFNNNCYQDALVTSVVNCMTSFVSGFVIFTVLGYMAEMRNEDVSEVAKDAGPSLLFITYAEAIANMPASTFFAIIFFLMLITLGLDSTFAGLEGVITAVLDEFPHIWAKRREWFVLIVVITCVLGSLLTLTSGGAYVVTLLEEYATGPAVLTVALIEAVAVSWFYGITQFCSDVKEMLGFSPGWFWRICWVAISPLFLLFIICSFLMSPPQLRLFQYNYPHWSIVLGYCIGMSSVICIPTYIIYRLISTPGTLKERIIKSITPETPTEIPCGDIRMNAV

For `CN([11CH3])Cc1ccccc1Sc1ccc(CF)cc1N` [AFM], under “rats, 11C-labelled, Huang et al., 2001b”, the “Brain uptake and specific binding” value is “excellent brain uptake and a high degree of specific binding”.
In the case of `CN(C)Cc1ccccc1Sc1ccc([125I])cc1N` [[^125I]ADAM], for the setting “comparison with [18F]ACF, hypothalamus region”, the “Time of peak uptake” value is 4 h.
